# What was measured:
# [1] = tested on: Tyrosine-protein kinase ABL1 (Homo sapiens), P00519 [F317L]; assay: Binding affinity to human non-phosphorylated ABL1 F317L mutant (S229 to K512 residues) expressed in mammalian expression system assessed as residual binding level at 10 uM by Kinomescan method relative to control
# [2] = tested on: Tyrosine-protein kinase ABL1 (Homo sapiens), P00519 [Q252H]; assay: Binding affinity to human non-phosphorylated ABL1 Q252H mutant (S229 to K512 residues) expressed in mammalian expression system assessed as residual binding level at 10 uM by Kinomescan method relative to control
# [3] = target: Activin receptor type-1B (Homo sapiens) (UniProt P36896); assay: Binding affinity to wild-type human ACVR1B (S187 to I505 residues) expressed in bacterial expression system assessed as residual binding level at 10 uM by Kinomescan method relative to control
# [4] = target: 5'-AMP-activated protein kinase catalytic subunit alpha-2 (Homo sapiens) (UniProt P54646); assay: Binding affinity to wild-type human partial length AMPK alpha2 (M1 to E306 residues) expressed in bacterial expression system assessed as residual binding level at 10 uM by Kinomescan method relative to control
# Sequence of 5'-AMP-activated protein kinase catalytic subunit alpha-2 (Homo sapiens) (P54646 whole entry, looked up, the tested form may be a part): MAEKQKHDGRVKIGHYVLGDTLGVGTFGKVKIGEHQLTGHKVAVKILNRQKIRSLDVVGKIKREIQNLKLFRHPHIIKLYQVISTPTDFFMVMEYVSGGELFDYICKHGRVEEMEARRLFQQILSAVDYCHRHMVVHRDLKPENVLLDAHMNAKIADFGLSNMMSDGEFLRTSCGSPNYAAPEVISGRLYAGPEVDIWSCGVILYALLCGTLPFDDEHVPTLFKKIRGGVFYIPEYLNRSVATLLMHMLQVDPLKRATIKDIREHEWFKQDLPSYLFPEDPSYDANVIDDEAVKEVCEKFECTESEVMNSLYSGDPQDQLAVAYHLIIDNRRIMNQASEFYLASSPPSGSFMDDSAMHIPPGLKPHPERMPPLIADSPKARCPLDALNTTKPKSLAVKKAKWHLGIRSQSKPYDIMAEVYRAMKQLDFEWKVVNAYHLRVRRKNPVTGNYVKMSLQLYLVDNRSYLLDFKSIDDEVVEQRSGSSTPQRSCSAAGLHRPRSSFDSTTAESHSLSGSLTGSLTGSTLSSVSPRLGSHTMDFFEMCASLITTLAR
# [5] = target: Serine/threonine-protein kinase B-raf (Homo sapiens) (UniProt P15056); assay: Binding affinity to wild-type human partial length BRAF (S429 to E741 residues) expressed in mammalian expression system assessed as residual binding level at 10 uM by Kinomescan method relative to control
# [6] = target: Cyclin-dependent kinase-like 2 (Homo sapiens) (UniProt Q92772); assay: Binding affinity to wild-type human partial length CDKL2 (M1 to D327 residues) expressed in bacterial expression system assessed as residual binding level at 10 uM by Kinomescan method relative to control
# Sequence of Cyclin-dependent kinase-like 2 (Homo sapiens) (Q92772 whole entry, the tested form may be a part, canonical isoform): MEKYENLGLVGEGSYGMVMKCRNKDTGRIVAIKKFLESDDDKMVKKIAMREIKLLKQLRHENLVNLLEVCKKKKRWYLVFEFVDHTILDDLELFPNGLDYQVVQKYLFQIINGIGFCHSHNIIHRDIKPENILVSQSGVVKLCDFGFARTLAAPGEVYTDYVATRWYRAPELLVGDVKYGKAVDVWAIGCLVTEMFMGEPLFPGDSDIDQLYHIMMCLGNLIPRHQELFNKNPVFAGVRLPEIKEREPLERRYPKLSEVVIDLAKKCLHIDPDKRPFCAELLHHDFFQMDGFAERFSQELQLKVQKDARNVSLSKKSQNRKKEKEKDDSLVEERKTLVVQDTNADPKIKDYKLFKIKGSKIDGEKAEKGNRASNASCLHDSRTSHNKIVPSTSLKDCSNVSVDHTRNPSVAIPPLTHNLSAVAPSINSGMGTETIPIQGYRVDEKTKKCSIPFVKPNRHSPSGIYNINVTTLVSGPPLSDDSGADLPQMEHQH
# [7] = target: Casein kinase I isoform alpha-like (Homo sapiens) (UniProt Q8N752); assay: Binding affinity to wild-type human full length CSNK1A1L (M1 to N337 residues) expressed in bacterial expression system assessed as residual binding level at 10 uM by Kinomescan method relative to control
# [8] = target: Casein kinase I isoform delta (Homo sapiens) (UniProt P48730); assay: Binding affinity to wild-type human full length CSNK1D (M1 to K409 residues) expressed in bacterial expression system assessed as residual binding level at 10 uM by Kinomescan method relative to control
# [9] = target: Megakaryocyte-associated tyrosine-protein kinase (Homo sapiens) (UniProt P42679); assay: Binding affinity to wild-type human full length CTK (M43 to P508 residues) expressed in mammalian expression system assessed as residual binding level at 10 uM by Kinomescan method relative to control
# Sequence of Megakaryocyte-associated tyrosine-protein kinase (Homo sapiens) (P42679 whole entry, the tested form may be a part): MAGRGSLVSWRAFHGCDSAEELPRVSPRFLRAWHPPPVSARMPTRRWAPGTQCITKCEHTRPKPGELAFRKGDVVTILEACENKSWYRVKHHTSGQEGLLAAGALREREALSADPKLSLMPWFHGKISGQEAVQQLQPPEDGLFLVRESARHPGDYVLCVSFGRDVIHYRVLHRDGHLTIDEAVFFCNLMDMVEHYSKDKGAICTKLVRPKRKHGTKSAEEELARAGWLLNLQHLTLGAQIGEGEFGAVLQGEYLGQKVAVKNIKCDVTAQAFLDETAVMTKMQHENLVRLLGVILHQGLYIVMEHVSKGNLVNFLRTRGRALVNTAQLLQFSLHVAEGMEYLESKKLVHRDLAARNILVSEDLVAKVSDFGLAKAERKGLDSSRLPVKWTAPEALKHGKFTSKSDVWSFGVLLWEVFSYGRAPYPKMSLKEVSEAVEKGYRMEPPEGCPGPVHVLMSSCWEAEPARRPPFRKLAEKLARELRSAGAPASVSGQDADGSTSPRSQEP
# [10] = target: Serine/threonine-protein kinase DCLK2 (Homo sapiens) (UniProt Q8N568); assay: Binding affinity to wild-type human partial length DCAMKL2 (K273 to V664 residues) expressed in bacterial expression system assessed as residual binding level at 10 uM by Kinomescan method relative to control
# Sequence of Serine/threonine-protein kinase DCLK2 (Homo sapiens) (Q8N568 whole entry, the tested form may be a part): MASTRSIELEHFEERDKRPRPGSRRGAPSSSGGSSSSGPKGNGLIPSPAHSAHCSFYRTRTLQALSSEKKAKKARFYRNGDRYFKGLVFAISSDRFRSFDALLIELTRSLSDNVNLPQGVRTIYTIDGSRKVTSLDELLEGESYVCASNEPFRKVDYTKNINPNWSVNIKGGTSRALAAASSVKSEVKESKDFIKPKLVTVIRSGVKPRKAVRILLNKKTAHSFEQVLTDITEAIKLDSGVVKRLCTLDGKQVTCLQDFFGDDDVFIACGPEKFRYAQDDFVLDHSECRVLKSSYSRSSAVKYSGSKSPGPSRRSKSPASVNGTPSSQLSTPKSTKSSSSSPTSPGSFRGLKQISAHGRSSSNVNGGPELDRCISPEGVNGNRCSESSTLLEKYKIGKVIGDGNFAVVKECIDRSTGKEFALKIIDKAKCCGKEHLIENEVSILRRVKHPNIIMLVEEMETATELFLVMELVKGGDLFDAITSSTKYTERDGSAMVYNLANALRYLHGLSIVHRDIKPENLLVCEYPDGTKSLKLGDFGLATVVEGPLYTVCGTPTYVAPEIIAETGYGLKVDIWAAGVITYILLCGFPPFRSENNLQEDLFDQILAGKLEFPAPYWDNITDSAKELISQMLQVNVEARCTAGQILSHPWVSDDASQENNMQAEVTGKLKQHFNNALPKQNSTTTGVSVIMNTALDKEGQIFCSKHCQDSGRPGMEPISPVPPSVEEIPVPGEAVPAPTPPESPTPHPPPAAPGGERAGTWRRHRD
# [11] = tested on: Epidermal growth factor receptor (Homo sapiens), P00533 [L861Q]; assay: Binding affinity to human partial length EGFR L861Q mutant (R669 to V1011 residues) expressed in bacterial expression system assessed as residual binding level at 10 uM by Kinomescan method relative to control
# [12] = tested on: Receptor-type tyrosine-protein kinase FLT3 (Homo sapiens), P36888 [D835Y]; assay: Binding affinity to human partial length FLT3 D835Y mutant (Q580 to Y969 residues) expressed in bacterial expression system assessed as residual binding level at 10 uM by Kinomescan method relative to control
# [13] = target: Vascular endothelial growth factor receptor 3 (Homo sapiens) (UniProt P35916); assay: Binding affinity to wild-type human partial length FLT4 (E821 to E1196 residues) expressed in bacterial expression system assessed as residual binding level at 10 uM by Kinomescan method relative to control
# [14] = target: Mitogen-activated protein kinase kinase kinase kinase 1 (Homo sapiens) (UniProt Q92918); assay: Binding affinity to wild-type human full length HPK1 (M1 to R799 residues) expressed in bacterial expression system assessed as residual binding level at 10 uM by Kinomescan method relative to control
# Sequence of Mitogen-activated protein kinase kinase kinase kinase 1 (Homo sapiens) (Q92918 whole entry, looked up, the tested form may be a part): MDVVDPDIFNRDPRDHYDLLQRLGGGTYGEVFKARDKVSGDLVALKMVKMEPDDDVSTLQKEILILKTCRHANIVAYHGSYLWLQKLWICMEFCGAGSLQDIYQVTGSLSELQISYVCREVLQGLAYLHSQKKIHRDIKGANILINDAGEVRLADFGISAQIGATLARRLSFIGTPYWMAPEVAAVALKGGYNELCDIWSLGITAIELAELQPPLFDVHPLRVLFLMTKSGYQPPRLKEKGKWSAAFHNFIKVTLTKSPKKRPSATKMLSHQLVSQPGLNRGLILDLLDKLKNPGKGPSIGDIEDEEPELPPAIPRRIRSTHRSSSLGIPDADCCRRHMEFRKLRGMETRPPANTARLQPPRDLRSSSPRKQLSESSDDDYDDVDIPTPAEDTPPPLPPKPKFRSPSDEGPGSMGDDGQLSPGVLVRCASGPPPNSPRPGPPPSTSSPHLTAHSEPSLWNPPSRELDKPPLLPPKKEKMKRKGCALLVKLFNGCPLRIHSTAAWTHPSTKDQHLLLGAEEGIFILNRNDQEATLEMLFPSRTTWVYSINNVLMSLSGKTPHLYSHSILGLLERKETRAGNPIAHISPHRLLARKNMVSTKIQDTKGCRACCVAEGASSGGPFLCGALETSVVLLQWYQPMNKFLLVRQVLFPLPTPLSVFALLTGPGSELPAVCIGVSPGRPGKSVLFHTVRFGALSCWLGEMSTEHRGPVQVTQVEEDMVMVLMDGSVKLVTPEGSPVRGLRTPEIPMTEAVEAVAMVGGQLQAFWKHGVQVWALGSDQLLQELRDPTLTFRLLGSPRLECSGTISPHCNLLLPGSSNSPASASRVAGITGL
# [15] = tested on: Mast/stem cell growth factor receptor Kit (Homo sapiens), P10721 [D816V]; assay: Binding affinity to human partial length KIT D816V mutant (I571 to D952 residues) expressed in bacterial expression system assessed as residual binding level at 10 uM by Kinomescan method relative to control
# Sequence of Mast/stem cell growth factor receptor Kit (Homo sapiens), P10721 [D816V] (P10721 whole entry D816V, the tested form may be a part): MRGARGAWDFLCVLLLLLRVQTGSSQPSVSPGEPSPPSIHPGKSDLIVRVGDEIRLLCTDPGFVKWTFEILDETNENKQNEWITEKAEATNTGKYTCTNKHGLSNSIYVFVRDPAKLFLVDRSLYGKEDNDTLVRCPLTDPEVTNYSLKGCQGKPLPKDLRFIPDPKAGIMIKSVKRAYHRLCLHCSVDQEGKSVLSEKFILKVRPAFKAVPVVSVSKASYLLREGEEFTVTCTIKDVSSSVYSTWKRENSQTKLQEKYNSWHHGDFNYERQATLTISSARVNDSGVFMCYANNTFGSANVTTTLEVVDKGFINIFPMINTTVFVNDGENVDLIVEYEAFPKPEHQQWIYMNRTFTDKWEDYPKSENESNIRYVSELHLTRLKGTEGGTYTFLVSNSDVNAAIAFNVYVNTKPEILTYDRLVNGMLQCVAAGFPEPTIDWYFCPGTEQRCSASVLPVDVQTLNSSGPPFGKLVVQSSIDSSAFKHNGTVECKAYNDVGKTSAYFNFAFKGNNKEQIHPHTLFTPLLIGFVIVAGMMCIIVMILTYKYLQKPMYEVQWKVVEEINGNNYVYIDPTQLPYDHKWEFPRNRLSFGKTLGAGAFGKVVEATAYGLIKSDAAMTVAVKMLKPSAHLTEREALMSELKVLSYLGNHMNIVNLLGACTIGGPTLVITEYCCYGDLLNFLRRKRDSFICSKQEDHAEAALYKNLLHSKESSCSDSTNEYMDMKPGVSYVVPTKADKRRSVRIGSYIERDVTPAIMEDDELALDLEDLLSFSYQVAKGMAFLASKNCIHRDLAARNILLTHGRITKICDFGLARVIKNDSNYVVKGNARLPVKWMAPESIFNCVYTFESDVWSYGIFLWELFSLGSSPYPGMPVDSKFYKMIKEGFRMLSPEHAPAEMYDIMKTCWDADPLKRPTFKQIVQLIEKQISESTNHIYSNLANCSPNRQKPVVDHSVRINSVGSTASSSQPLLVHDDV
# [16] = target: Mitogen-activated protein kinase kinase kinase kinase 3 (Homo sapiens) (UniProt Q8IVH8); assay: Binding affinity to wild-type human partial length MAP4K3 (M1 to D301 residues) expressed in bacterial expression system assessed as residual binding level at 10 uM by Kinomescan method relative to control
# Sequence of Mitogen-activated protein kinase kinase kinase kinase 3 (Homo sapiens) (Q8IVH8 whole entry, the tested form may be a part): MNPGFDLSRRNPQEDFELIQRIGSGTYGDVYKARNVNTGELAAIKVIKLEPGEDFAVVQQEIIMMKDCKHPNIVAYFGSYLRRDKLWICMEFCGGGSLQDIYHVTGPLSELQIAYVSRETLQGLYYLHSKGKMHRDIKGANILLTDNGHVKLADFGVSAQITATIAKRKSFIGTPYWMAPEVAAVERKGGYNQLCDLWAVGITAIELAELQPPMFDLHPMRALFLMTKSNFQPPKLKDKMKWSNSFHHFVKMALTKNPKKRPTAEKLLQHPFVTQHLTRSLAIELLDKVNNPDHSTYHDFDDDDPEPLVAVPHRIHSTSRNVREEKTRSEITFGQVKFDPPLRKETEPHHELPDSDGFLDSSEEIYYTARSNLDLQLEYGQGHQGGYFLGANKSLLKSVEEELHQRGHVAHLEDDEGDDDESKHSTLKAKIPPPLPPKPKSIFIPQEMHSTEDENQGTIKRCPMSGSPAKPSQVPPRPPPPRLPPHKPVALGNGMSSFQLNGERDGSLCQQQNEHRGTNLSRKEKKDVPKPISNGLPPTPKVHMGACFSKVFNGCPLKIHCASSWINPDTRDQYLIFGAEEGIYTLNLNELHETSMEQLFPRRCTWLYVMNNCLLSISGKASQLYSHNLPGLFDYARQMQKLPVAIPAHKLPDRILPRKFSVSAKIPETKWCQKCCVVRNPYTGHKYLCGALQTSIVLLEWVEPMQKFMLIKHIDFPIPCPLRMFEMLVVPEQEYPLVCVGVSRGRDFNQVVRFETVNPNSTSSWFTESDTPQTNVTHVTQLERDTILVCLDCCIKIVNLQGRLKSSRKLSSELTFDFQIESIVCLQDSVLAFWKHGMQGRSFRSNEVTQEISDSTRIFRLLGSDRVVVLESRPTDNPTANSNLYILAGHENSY
# [17] = target: Mitogen-activated protein kinase 14 (Homo sapiens) (UniProt Q16539); assay: Binding affinity to wild-type human full length p38-alpha (M1 to S360 residues) expressed in bacterial expression system assessed as residual binding level at 10 uM by Kinomescan method relative to control
# [18] = target: Serine/threonine-protein kinase PAK 1 (Homo sapiens) (UniProt Q13153); assay: Binding affinity to wild-type human partial length PAK1 (S149 to H545 residues) expressed in bacterial expression system assessed as residual binding level at 10 uM by Kinomescan method relative to control
# [19] = target: Phosphatidylinositol 5-phosphate 4-kinase type-2 gamma (Homo sapiens) (UniProt Q8TBX8); assay: Binding affinity to wild-type human partial length PIP5K2C (M1 to A421 residues) expressed in mammalian expression system assessed as residual binding level at 10 uM by Kinomescan method relative to control
# [20] = target: Protein kinase C delta type (Homo sapiens) (UniProt Q05655); assay: Binding affinity to wild-type human partial length PRKCD (Q328 to D676 residues) expressed in bacterial expression system assessed as residual binding level at 10 uM by Kinomescan method relative to control
# [21] = target: TGF-beta receptor type-1 (Homo sapiens) (UniProt P36897); assay: Binding affinity to wild-type human partial length TGFBR1 (D179 to M503 residues) expressed in bacterial expression system assessed as residual binding level at 10 uM by Kinomescan method relative to control
# [22] = target: Transient receptor potential cation channel subfamily M member 6 (Homo sapiens) (UniProt Q9BX84); assay: Binding affinity to wild-type human partial length TRPM6 (Q1723 to I1998 residues) expressed in mammalian expression system assessed as residual binding level at 10 uM by Kinomescan method relative to control
# [23] = target: Dual specificity protein kinase TTK (Homo sapiens) (UniProt P33981); assay: Binding affinity to wild-type human partial length TTK (N505 to V798 residues) expressed in bacterial expression system assessed as residual binding level at 10 uM by Kinomescan method relative to control
# [24] = tested on: NIH3T3; assay: Inhibition of erastin-induced ferroptosis in mouse NIH/3T3 cells after 24 hrs by WST-8 assay; assay type: functional, cell-based; details: NIH3T3, 24 h
smiles,measurement,setting,value
CC(C)N1C(=O)C(NCCCN(C)C)=C(c2cn(C)c3ccccc23)C1=O.Cl,Activity,[1],84%
same,Activity,[2],100%
same,Activity,[3],88%
same,Activity,[4],89%
same,Activity,[5],89%
same,Activity,[6],91%
same,Activity,[7],99%
same,Activity,[8],100%
same,Activity,[9],83%
same,Activity,[10],94%
same,Activity,[11],80%
same,Activity,[12],94%
same,Activity,[13],99%
same,Activity,[14],100%
same,Activity,[15],94%
same,Activity,[16],96%
same,Activity,[17],100%
same,Activity,[18],92%
same,Activity,[19],83%
same,Activity,[20],100%
same,Activity,[21],100%
same,Activity,[22],97%
same,Activity,[23],100%
same,IC50,[24],1.9 µM
